# Tested on: K86415-001-R-J1-PDC complex spheroids, viability
# Test: Anticancer human tumor K86415-001-R-J1-PDC patient-derived lung adenocarcinoma cell line growth inhibition [RAS]
# Settings: for IC50: curve of first compound; for viability, T/C: stronger effect = lower value
# Summary of the method: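 Multi-cell-type spheroids: tumor cells plus HUVEC endothelial cells and mesenchymal stem cells. RAS-pathway inhibitors were combined with targeted agents, each dosed in half-log steps down from clinical Cmax, or from 10 microM when Cmax was unknown.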
# 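Also: spheroids exposed to agents for seven days before readout.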
smiles,measurement,setting,value
C[C@@H](NC(=O)c1ncnc(N)c1Cl)c1ncc(C(=O)Nc2cc(C(F)(F)F)c(Cl)cn2)s1 + C#Cc1c(F)ccc2cc(O)cc(-c3ncc4c(N5CC6CCC(C5)N6)nc(OCC56CCCN5CC(F)C6)nc4c3F)c12,IC50,second compound 0.0316 µM,> 10 µM
same,IC50,second compound 0.1 µM,> 10 µM
same,IC50,second compound 0.316 µM,> 10 µM
same,IC50,second compound 1 µM,7.33 µM
same,IC50,second compound 3.16 µM,0.183 µM
same,IC50,second compound 10 µM,< 0.0316 µM
same,"viability, T/C","second compound 0.0316 µM, first compound 0.0316 µM",107%
same,"viability, T/C","second compound 0.0316 µM, first compound 0.1 µM",115%
same,"viability, T/C","second compound 0.0316 µM, first compound 0.316 µM",104%
same,"viability, T/C","second compound 0.0316 µM, first compound 1 µM",81.1%
same,"viability, T/C","second compound 0.0316 µM, first compound 3.16 µM",61.1%
same,"viability, T/C","second compound 0.0316 µM, first compound 10 µM",56.5%
same,"viability, T/C","second compound 0.1 µM, first compound 0.0316 µM",113%
same,"viability, T/C","second compound 0.1 µM, first compound 0.1 µM",112%
same,"viability, T/C","second compound 0.1 µM, first compound 0.316 µM",93%
same,"viability, T/C","second compound 0.1 µM, first compound 1 µM",79.9%
same,"viability, T/C","second compound 0.1 µM, first compound 3.16 µM",67.5%
same,"viability, T/C","second compound 0.1 µM, first compound 10 µM",56.8%
same,"viability, T/C","second compound 0.316 µM, first compound 0.0316 µM",119%
same,"viability, T/C","second compound 0.316 µM, first compound 0.1 µM",108%
same,"viability, T/C","second compound 0.316 µM, first compound 0.316 µM",88.8%
same,"viability, T/C","second compound 0.316 µM, first compound 1 µM",79.8%
same,"viability, T/C","second compound 0.316 µM, first compound 3.16 µM",65.5%
same,"viability, T/C","second compound 0.316 µM, first compound 10 µM",53.6%
same,"viability, T/C","second compound 1 µM, first compound 0.0316 µM",83.9%
same,"viability, T/C","second compound 1 µM, first compound 0.1 µM",85.9%
same,"viability, T/C","second compound 1 µM, first compound 0.316 µM",69.1%
same,"viability, T/C","second compound 1 µM, first compound 1 µM",69%
same,"viability, T/C","second compound 1 µM, first compound 3.16 µM",59.7%
same,"viability, T/C","second compound 1 µM, first compound 10 µM",46.3%
same,"viability, T/C","second compound 3.16 µM, first compound 0.0316 µM",46.9%
same,"viability, T/C","second compound 3.16 µM, first compound 0.1 µM",53.5%
same,"viability, T/C","second compound 3.16 µM, first compound 0.316 µM",52.3%
same,"viability, T/C","second compound 3.16 µM, first compound 1 µM",42.6%
same,"viability, T/C","second compound 3.16 µM, first compound 3.16 µM",38.4%
same,"viability, T/C","second compound 3.16 µM, first compound 10 µM",30.2%
same,"viability, T/C","second compound 10 µM, first compound 0.0316 µM",19.5%
same,"viability, T/C","second compound 10 µM, first compound 0.1 µM",26%
same,"viability, T/C","second compound 10 µM, first compound 0.316 µM",23.1%
same,"viability, T/C","second compound 10 µM, first compound 1 µM",18.2%
same,"viability, T/C","second compound 10 µM, first compound 3.16 µM",19.6%
same,"viability, T/C","second compound 10 µM, first compound 10 µM",15.3%
CC(=O)OC12COC1CC(O)C1(C)C(=O)C(O)C3=C(C)C(OC(=O)C(O)C(NC(=O)OC(C)(C)C)c4ccccc4)CC(O)(C(OC(=O)c4ccccc4)C21)C3(C)C (centres undefined) + CCn1c(-c2cccnc2C(C)OC)c2c3cc(ccc31)N1CCOC(CC(NC(=O)C(C(C)C)N(C)C(=O)C3(F)CCN(C(=O)C#CC(C)(C)N(C)C)CC3)C(=O)N3CCCC(N3)C(=O)OCC(C)(C)C2)C1,IC50,second compound 0.000949 µM,< 0.0316 µM
same,IC50,second compound 0.003 µM,< 0.0316 µM
same,IC50,second compound 0.00949 µM,< 0.0316 µM
same,IC50,second compound 0.03 µM,< 0.0316 µM
same,IC50,second compound 0.0949 µM,< 0.0316 µM
same,IC50,second compound 0.3 µM,< 0.0316 µM
same,"viability, T/C","second compound 0.000949 µM, first compound 0.0316 µM",18.7%
same,"viability, T/C","second compound 0.000949 µM, first compound 0.1 µM",15.3%
same,"viability, T/C","second compound 0.000949 µM, first compound 0.316 µM",11.3%
same,"viability, T/C","second compound 0.000949 µM, first compound 1 µM",17.3%
same,"viability, T/C","second compound 0.000949 µM, first compound 3.16 µM",16.2%
same,"viability, T/C","second compound 0.000949 µM, first compound 10 µM",12.4%
same,"viability, T/C","second compound 0.003 µM, first compound 0.0316 µM",15.4%
same,"viability, T/C","second compound 0.003 µM, first compound 0.1 µM",12%
same,"viability, T/C","second compound 0.003 µM, first compound 0.316 µM",11.3%
same,"viability, T/C","second compound 0.003 µM, first compound 1 µM",10.1%
same,"viability, T/C","second compound 0.003 µM, first compound 3.16 µM",12.7%
same,"viability, T/C","second compound 0.003 µM, first compound 10 µM",9.57%
same,"viability, T/C","second compound 0.00949 µM, first compound 0.0316 µM",13.6%
same,"viability, T/C","second compound 0.00949 µM, first compound 0.1 µM",10.8%
same,"viability, T/C","second compound 0.00949 µM, first compound 0.316 µM",12.1%
same,"viability, T/C","second compound 0.00949 µM, first compound 1 µM",11.7%
same,"viability, T/C","second compound 0.00949 µM, first compound 3.16 µM",11.5%
same,"viability, T/C","second compound 0.00949 µM, first compound 10 µM",7.67%
same,"viability, T/C","second compound 0.03 µM, first compound 0.0316 µM",10.3%
same,"viability, T/C","second compound 0.03 µM, first compound 0.1 µM",14.9%
same,"viability, T/C","second compound 0.03 µM, first compound 0.316 µM",10.9%
same,"viability, T/C","second compound 0.03 µM, first compound 1 µM",11.3%
same,"viability, T/C","second compound 0.03 µM, first compound 3.16 µM",10.9%
same,"viability, T/C","second compound 0.03 µM, first compound 10 µM",12.1%
same,"viability, T/C","second compound 0.0949 µM, first compound 0.0316 µM",11.4%
same,"viability, T/C","second compound 0.0949 µM, first compound 0.1 µM",9.46%
same,"viability, T/C","second compound 0.0949 µM, first compound 0.316 µM",10.1%
same,"viability, T/C","second compound 0.0949 µM, first compound 1 µM",10.8%
same,"viability, T/C","second compound 0.0949 µM, first compound 3.16 µM",6.98%
same,"viability, T/C","second compound 0.0949 µM, first compound 10 µM",8.55%
same,"viability, T/C","second compound 0.3 µM, first compound 0.0316 µM",10.3%
same,"viability, T/C","second compound 0.3 µM, first compound 0.1 µM",7.45%
same,"viability, T/C","second compound 0.3 µM, first compound 0.316 µM",7.7%
same,"viability, T/C","second compound 0.3 µM, first compound 1 µM",5.41%
same,"viability, T/C","second compound 0.3 µM, first compound 3.16 µM",6.82%
same,"viability, T/C","second compound 0.3 µM, first compound 10 µM",7.01%

# Source: PubChem BioAssay AID2060893 (Molecular Pharmacology Branch, DTP, NCI, 2025)
